Key:
green foxtail [1] = assay: Test Example 5: herbicidal effect by foliage application, plastic box (Table 20, symbol G); assay type: in vivo, green foxtail (Setaria viridis); conditions: 320 g/ha, foliage application after 14-day growth, evaluated three weeks after application
Method in brief: (§1)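 Plants sown in sterilized diluvial soil and grown 14 days in a greenhouse at 25° C to 30° C, then sprayed on the foliage with the compound's emulsion diluted in water to a predetermined herbicide amount. Injury to weeds and crops scored three weeks after application on a visual rating scale.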

chickweed [2] = assay: Test Example 5: herbicidal effect by foliage application, plastic box (Table 20, symbol P); assay type: in vivo, common chickweed (Stellaria media); conditions: 320 g/ha, foliage application after 14-day growth, evaluated three weeks after application
Method in brief: as §1

southern crabgrass [3] = assay: Test Example 5: herbicidal effect by foliage application, plastic box (Table 20, symbol F); assay type: in vivo, southern crabgrass (Digitaria ciliaris); conditions: 320 g/ha, foliage application after 14-day growth, evaluated three weeks after application
Method in brief: as §1

rice flat sedge = assay: Test Example 3: herbicidal effect by foliage application, Wagner pot (Table 18, symbol E); assay type: in vivo, rice flat sedge (Cyperus iria); conditions: 320 g/ha
Method in brief: (§2)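 Plants were sown in alluvial soil held under 0.1–0.5 cm standing water and grown 14 days in a greenhouse at 25–30 °C. An emulsifiable formulation, water-diluted to the set dose, was then sprayed onto the foliage, and effects were scored three weeks later using previously defined criteria.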

barnyard grass [4] = assay: Test Example 5: herbicidal effect by foliage application, plastic box (Table 20, symbol H); assay type: in vivo, barnyard grass (Echinochloa crus-galli); conditions: 320 g/ha, foliage application after 14-day growth, evaluated three weeks after application
Method in brief: as §1

wild oat [5] = assay: Test Example 5: herbicidal effect by foliage application, plastic box (Table 20, symbol I); assay type: in vivo, wild oat (Avena fatua); conditions: 320 g/ha, foliage application after 14-day growth, evaluated three weeks after application
Method in brief: as §1

velvetleaf [6] = assay: Test Example 5: herbicidal effect by foliage application, plastic box (Table 20, symbol M); assay type: in vivo, velvetleaf (Abutilon theophrasti); conditions: 320 g/ha, foliage application after 14-day growth, evaluated three weeks after application
Method in brief: as §1

Italian ryegrass [7] = assay: Test Example 4: herbicidal effect by soil treatment (Table 19, symbol K); assay type: in vivo, Italian ryegrass (Lolium multiflorum); conditions: amount of applied herbicide 320 g/ha
Method in brief: (§3)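 Seeds were sown in sterilized diluvial soil and covered with about 1.5 cm of soil. An emulsion formulation diluted with water to a predetermined herbicide amount was sprayed evenly onto the soil surface. Plants grew in a greenhouse at 25° C. to 30° C., and the effect was scored three weeks after application using criteria from an earlier test.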

velvetleaf [8] = assay: Test Example 4: herbicidal effect by soil treatment (Table 19, symbol M); assay type: in vivo, velvetleaf (Abutilon theophrasti); conditions: amount of applied herbicide 320 g/ha
Method in brief: as §3

redroot pigweed [9] = assay: Test Example 5: herbicidal effect by foliage application, plastic box (Table 20, symbol N); assay type: in vivo, redroot pigweed (Amaranthus retroflexus); conditions: 320 g/ha, foliage application after 14-day growth, evaluated three weeks after application
Method in brief: as §1

blackgrass [10] = assay: Test Example 5: herbicidal effect by foliage application, plastic box (Table 20, symbol J); assay type: in vivo, blackgrass (Alopecurus myosuroides); conditions: 320 g/ha, foliage application after 14-day growth, evaluated three weeks after application
Method in brief: as §1

persian speedwell [11] = assay: Test Example 5: herbicidal effect by foliage application, plastic box (Table 20, symbol R); assay type: in vivo, Persian speedwell (Veronica persica); conditions: 320 g/ha, foliage application after 14-day growth, evaluated three weeks after application
Method in brief: as §1

Chinese sprangletop = assay: Test Example 3: herbicidal effect by foliage application, Wagner pot (Table 18, symbol D); assay type: in vivo, chinese sprangletop (Leptochloa chinensis); conditions: 320 g/ha
Method in brief: as §2

southern crabgrass [12] = assay: Test Example 4: herbicidal effect by soil treatment (Table 19, symbol F); assay type: in vivo, southern crabgrass (Digitaria ciliaris); conditions: amount of applied herbicide 320 g/ha
Method in brief: as §3

Italian ryegrass [13] = assay: Test Example 5: herbicidal effect by foliage application, plastic box (Table 20, symbol K); assay type: in vivo, Italian ryegrass (Lolium multiflorum); conditions: 320 g/ha, foliage application after 14-day growth, evaluated three weeks after application
Method in brief: as §1

wild oat [14] = assay: Test Example 4: herbicidal effect by soil treatment (Table 19, symbol I); assay type: in vivo, wild oat (Avena fatua); conditions: amount of applied herbicide 320 g/ha
Method in brief: as §3

persian speedwell [15] = assay: Test Example 4: herbicidal effect by soil treatment (Table 19, symbol R); assay type: in vivo, Persian speedwell (Veronica persica); conditions: amount of applied herbicide 320 g/ha
Method in brief: as §3

lambsquarters [16] = assay: Test Example 4: herbicidal effect by soil treatment (Table 19, symbol O); assay type: in vivo, lambsquarters (Chenopodium album); conditions: amount of applied herbicide 320 g/ha
Method in brief: as §3

lambsquarters [17] = assay: Test Example 5: herbicidal effect by foliage application, plastic box (Table 20, symbol O); assay type: in vivo, lambsquarters (Chenopodium album); conditions: 320 g/ha, foliage application after 14-day growth, evaluated three weeks after application
Method in brief: as §1

blackgrass [18] = assay: Test Example 4: herbicidal effect by soil treatment (Table 19, symbol J); assay type: in vivo, blackgrass (Alopecurus myosuroides); conditions: amount of applied herbicide 320 g/ha
Method in brief: as §3

barnyard grass [19] = assay: Test Example 3: herbicidal effect by foliage application, Wagner pot (Table 18, symbol H); assay type: in vivo, barnyard grass (Echinochloa crus-galli); conditions: 320 g/ha
Method in brief: as §2

chickweed [20] = assay: Test Example 4: herbicidal effect by soil treatment (Table 19, symbol P); assay type: in vivo, common chickweed (Stellaria media); conditions: amount of applied herbicide 320 g/ha
Method in brief: as §3

barnyard grass [21] = assay: Test Example 4: herbicidal effect by soil treatment (Table 19, symbol H); assay type: in vivo, barnyard grass (Echinochloa crus-galli); conditions: amount of applied herbicide 320 g/ha
Method in brief: as §3

windgrass [22] = assay: Test Example 4: herbicidal effect by soil treatment (Table 19, symbol L); assay type: in vivo, windgrass (Apera spica-venti); conditions: amount of applied herbicide 320 g/ha
Method in brief: as §3

windgrass [23] = assay: Test Example 5: herbicidal effect by foliage application, plastic box (Table 20, symbol L); assay type: in vivo, windgrass (Apera spica-venti); conditions: 320 g/ha, foliage application after 14-day growth, evaluated three weeks after application
Method in brief: as §1

green foxtail [24] = assay: Test Example 4: herbicidal effect by soil treatment (Table 19, symbol G); assay type: in vivo, green foxtail (Setaria viridis); conditions: amount of applied herbicide 320 g/ha
Method in brief: as §3

redroot pigweed [25] = assay: Test Example 4: herbicidal effect by soil treatment (Table 19, symbol N); assay type: in vivo, redroot pigweed (Amaranthus retroflexus); conditions: amount of applied herbicide 320 g/ha
Method in brief: as §3

Row | Structure (SMILES) | herbicidal effect on G: green foxtail (evaluation grade 0-5) (green foxtail [1]) | herbicidal effect on P: chickweed (evaluation grade 0-5) (chickweed [2]) | herbicidal effect on F: southern crabgrass (evaluation grade 0-5) (southern crabgrass [3]) | herbicidal effect on rice flat sedge (E) (rice flat sedge) | herbicidal effect on H: barnyard grass (evaluation grade 0-5) (barnyard grass [4]) | herbicidal effect on I: wild oat (evaluation grade 0-5) (wild oat [5]) | herbicidal effect on M: velvetleaf (evaluation grade 0-5) (velvetleaf [6]) | Herbicidal effect by soil treatment, K: Italian ryegrass (Italian ryegrass [7]) | Herbicidal effect by soil treatment, M: velvetleaf (velvetleaf [8]) | herbicidal effect on N: redroot pigweed (evaluation grade 0-5) (redroot pigweed [9]) | herbicidal effect on J: blackgrass (evaluation grade 0-5) (blackgrass [10]) | herbicidal effect on R: persian speedwell (evaluation grade 0-5) (persian speedwell [11]) | herbicidal effect on Chinese sprangletop (D) (Chinese sprangletop) | Herbicidal effect by soil treatment, F: southern crabgrass (southern crabgrass [12]) | herbicidal effect on K: Italian ryegrass (evaluation grade 0-5) (Italian ryegrass [13]) | Herbicidal effect by soil treatment, I: wild oat (wild oat [14]) | Herbicidal effect by soil treatment, R: persian speedwell (persian speedwell [15]) | Herbicidal effect by soil treatment, O: lambsquarters (lambsquarters [16]) | herbicidal effect on O: lambsquarters (evaluation grade 0-5) (lambsquarters [17]) | Herbicidal effect by soil treatment, J: blackgrass (blackgrass [18]) | also measured
1 | CCCC(=O)Oc1c(C)nn(C)c(=O)c1-c1c(-c2ccc(F)cc2OC)sc2c(Cl)cccc12 [4-034] | 3 (Herbicidal rate of 40% or more and less than 70%) | 5 (Herbicidal rate of 90% or more (almost completely withered)) | 0 (Herbicidal rate of 5% or less (almost no effect)) | 4 (Herbicidal rate of 70% or more and less than 90%) | 3 (Herbicidal rate of 40% or more and less than 70%) | 0 (Herbicidal rate of 5% or less (almost no effect)) | 3 (Herbicidal rate of 40% or more and less than 70%) | 0 (Herbicidal rate of 5% or less (almost no effect)) | 2 (Herbicidal rate of 20% or more and less than 40%) | 1 (Herbicidal rate of 5% or more and less than 20%) | 0 (Herbicidal rate of 5% or less (almost no effect)) | 4 (Herbicidal rate of 70% or more and less than 90%) | 5 (Herbicidal rate of 90% or more (almost completely withered)) | 3 (Herbicidal rate of 40% or more and less than 70%) | 0 (Herbicidal rate of 5% or less (almost no effect)) | 0 (Herbicidal rate of 5% or less (almost no effect)) | 0 (Herbicidal rate of 5% or less (almost no effect)) | 3 (Herbicidal rate of 40% or more and less than 70%) | 0 (Herbicidal rate of 5% or less (almost no effect)) | 0 (Herbicidal rate of 5% or less (almost no effect)) | herbicidal effect on barnyard grass (H) (barnyard grass [19]): 4 (Herbicidal rate of 70% or more and less than 90%); Herbicidal effect by soil treatment, P: chickweed (chickweed [20]): 0 (Herbicidal rate of 5% or less (almost no effect)); Herbicidal effect by soil treatment, H: barnyard grass (barnyard grass [21]): 3 (Herbicidal rate of 40% or more and less than 70%); Herbicidal effect by soil treatment, L: windgrass (windgrass [22]): 0 (Herbicidal rate of 5% or less (almost no effect)); herbicidal effect on L: windgrass (evaluation grade 0-5) (windgrass [23]): 5 (Herbicidal rate of 90% or more (almost completely withered)); Herbicidal effect by soil treatment, G: green foxtail (green foxtail [24]): 4 (Herbicidal rate of 70% or more and less than 90%); Herbicidal effect by soil treatment, N: redroot pigweed (redroot pigweed [25]): 4 (Herbicidal rate of 70% or more and less than 90%)
2 | Cc1nn(C)c(=O)c(-c2c(-c3ccc(OC(F)(F)F)cc3)sc3c(F)cccc23)c1O [4-048] | 5 (Herbicidal rate of 90% or more (almost completely withered)) | 5 (Herbicidal rate of 90% or more (almost completely withered)) | 1 (Herbicidal rate of 5% or more and less than 20%) | 5 (Herbicidal rate of 90% or more (almost completely withered)) | 5 (Herbicidal rate of 90% or more (almost completely withered)) | 3 (Herbicidal rate of 40% or more and less than 70%) | 3 (Herbicidal rate of 40% or more and less than 70%) | 0 (Herbicidal rate of 5% or less (almost no effect)) | 0 (Herbicidal rate of 5% or less (almost no effect)) | 5 (Herbicidal rate of 90% or more (almost completely withered)) | 0 (Herbicidal rate of 5% or less (almost no effect)) | 5 (Herbicidal rate of 90% or more (almost completely withered)) | 5 (Herbicidal rate of 90% or more (almost completely withered)) | 1 (Herbicidal rate of 5% or more and less than 20%) | 4 (Herbicidal rate of 70% or more and less than 90%) | 0 (Herbicidal rate of 5% or less (almost no effect)) | 5 (Herbicidal rate of 90% or more (almost completely withered)) | 1 (Herbicidal rate of 5% or more and less than 20%) | 3 (Herbicidal rate of 40% or more and less than 70%) | 0 (Herbicidal rate of 5% or less (almost no effect)) | herbicidal effect on barnyard grass (H) (barnyard grass [19]): 5 (Herbicidal rate of 90% or more (almost completely withered)); Herbicidal effect by soil treatment, P: chickweed (chickweed [20]): 1 (Herbicidal rate of 5% or more and less than 20%); Herbicidal effect by soil treatment, H: barnyard grass (barnyard grass [21]): 2 (Herbicidal rate of 20% or more and less than 40%); Herbicidal effect by soil treatment, L: windgrass (windgrass [22]): 0 (Herbicidal rate of 5% or less (almost no effect)); herbicidal effect on L: windgrass (evaluation grade 0-5) (windgrass [23]): 5 (Herbicidal rate of 90% or more (almost completely withered)); Herbicidal effect by soil treatment, G: green foxtail (green foxtail [24]): 0 (Herbicidal rate of 5% or less (almost no effect)); Herbicidal effect by soil treatment, N: redroot pigweed (redroot pigweed [25]): 3 (Herbicidal rate of 40% or more and less than 70%)
